This is an account of results in ChEMBL document CHEMBL1134323, “Structural basis for the binding affinity of xanthines with the DNA intercalator acridine orange” (J Med Chem, 2001).

The test system of this assay is Nucleic Acid.

The compound `Oc1nc(O)c2nc(O)[nH]c2n1` registered a K ass of 0 M⁻¹.

Compound `Cn1c(=O)[nH]c2[nH]cnc2c1=O` came in with a K ass of 79.2 M⁻¹. In the case of `Cn1c2c(c(=O)n(C)c1=O)NCN2.N/C=C/N`, the K ass was determined as 596 M⁻¹. Compound `Cn1c(=O)c2c(n(C)c1=O)n(C)c(=O)n2C` returned a K ass of 552 M⁻¹. Turning to `Cn1c(=O)[nH]c(=O)c2[nH]cnc21`, the K ass is 10 M⁻¹.

On to `O=c1[nH]c(=O)c2nc[nH]c2[nH]1`, for which the K ass was 0 M⁻¹.

Consider `CN1CNc2[nH]c(=O)n(C)c(=O)c21`, for which the K ass was determined as 155 M⁻¹. `Cn1c(O)nc2[nH]c(=O)[nH]c(=O)c21` had a K ass of 0 M⁻¹. Then `c1nc2c[nH]cnc-2n1`, with 2 M⁻¹; and `Cn1c(=O)c2[nH]cnc2n(C)c1=O`, with 157 M⁻¹; and `Cn1c(=O)c2[nH]c(=O)[nH]c2n(C)c1=O`, with 38.5 M⁻¹.

For `Cc1ncnc2nc[nH]c12`, the K ass was 0 M⁻¹. The compound `Nc1nc2[nH]cnc2c(=O)[nH]1` came in with a K ass of 0 M⁻¹. Consider `Clc1ncnc2[nH]cnc12`, for which the K ass came out at 0 M⁻¹.
